# Source: ChEMBL document CHEMBL1201862, “PubChem BioAssay data set” (2004)
# The source made the active and inactive calls. Cut-off read from the data, not from the text of the source: actives have a measured IC50 and inactives only a lower limit.
# Target: Envelope glycoprotein gp160 (Human immunodeficiency virus 1, UniProt Q6QLK5)
# Assay: inhibitors of HIV fusion peptide binding, primary screen, biochemical, uHTS, fluorescence dequenching (AID 1986)
# Chain of Envelope glycoprotein gp160 (Q6QLK5 whole entry, the tested form may be a part): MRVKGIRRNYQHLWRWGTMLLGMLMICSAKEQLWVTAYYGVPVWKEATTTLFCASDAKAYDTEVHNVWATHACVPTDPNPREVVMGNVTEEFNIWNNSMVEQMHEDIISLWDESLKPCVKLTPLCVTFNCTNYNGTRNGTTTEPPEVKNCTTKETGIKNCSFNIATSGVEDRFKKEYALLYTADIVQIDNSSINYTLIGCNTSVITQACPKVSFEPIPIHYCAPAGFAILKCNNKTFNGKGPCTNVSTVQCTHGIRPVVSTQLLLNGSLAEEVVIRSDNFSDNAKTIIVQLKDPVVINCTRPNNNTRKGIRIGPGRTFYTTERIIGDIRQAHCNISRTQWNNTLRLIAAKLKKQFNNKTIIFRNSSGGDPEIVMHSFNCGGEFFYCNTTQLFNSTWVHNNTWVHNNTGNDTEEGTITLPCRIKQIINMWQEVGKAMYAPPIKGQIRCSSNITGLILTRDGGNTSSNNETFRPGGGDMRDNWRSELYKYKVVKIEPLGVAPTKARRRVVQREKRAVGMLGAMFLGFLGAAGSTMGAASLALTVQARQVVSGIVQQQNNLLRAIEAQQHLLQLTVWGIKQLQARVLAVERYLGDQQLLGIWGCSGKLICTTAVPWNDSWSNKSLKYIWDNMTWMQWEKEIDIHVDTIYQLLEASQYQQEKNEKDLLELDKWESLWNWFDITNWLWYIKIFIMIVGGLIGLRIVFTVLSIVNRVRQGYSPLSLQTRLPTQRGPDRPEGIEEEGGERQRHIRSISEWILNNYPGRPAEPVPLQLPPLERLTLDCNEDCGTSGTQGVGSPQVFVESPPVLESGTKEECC
row,Compound,IC50
1,CC1=CN2C(=N)/C(=C/c3cc(Cl)c(O)c(Cl)c3)C(=O)N=C2S1,26.2 µM (active)
2,O=C(NN1C(=O)/C(=C\c2ccc(O)c([N+](=O)[O-])c2)SC1=S)c1ccccc1Cl,24.9 µM (active)
3,COc1cc(/C=C2/C(=O)NN(c3ccc(Cl)cc3)C2=O)cc(Br)c1O,15.5 µM (active)
